This is an account of results in patent EP1585727B1, “INDOLES USEFUL IN THE TREATMENT OF ANDROGEN-RECEPTOR RELATED DISEASES” (priority 2002, dated 2004).

Assay [1] has as its target T1, human androgen receptor (Homo sapiens, UniProt P10275).
T1 construct: expressed in transfected cells; host or cells: Chinese hamster ovary (CHO) cells, cell line CHO-AR-pMMTV-LUC 1G12-A5-CA
T1 sequence (P10275 1-920): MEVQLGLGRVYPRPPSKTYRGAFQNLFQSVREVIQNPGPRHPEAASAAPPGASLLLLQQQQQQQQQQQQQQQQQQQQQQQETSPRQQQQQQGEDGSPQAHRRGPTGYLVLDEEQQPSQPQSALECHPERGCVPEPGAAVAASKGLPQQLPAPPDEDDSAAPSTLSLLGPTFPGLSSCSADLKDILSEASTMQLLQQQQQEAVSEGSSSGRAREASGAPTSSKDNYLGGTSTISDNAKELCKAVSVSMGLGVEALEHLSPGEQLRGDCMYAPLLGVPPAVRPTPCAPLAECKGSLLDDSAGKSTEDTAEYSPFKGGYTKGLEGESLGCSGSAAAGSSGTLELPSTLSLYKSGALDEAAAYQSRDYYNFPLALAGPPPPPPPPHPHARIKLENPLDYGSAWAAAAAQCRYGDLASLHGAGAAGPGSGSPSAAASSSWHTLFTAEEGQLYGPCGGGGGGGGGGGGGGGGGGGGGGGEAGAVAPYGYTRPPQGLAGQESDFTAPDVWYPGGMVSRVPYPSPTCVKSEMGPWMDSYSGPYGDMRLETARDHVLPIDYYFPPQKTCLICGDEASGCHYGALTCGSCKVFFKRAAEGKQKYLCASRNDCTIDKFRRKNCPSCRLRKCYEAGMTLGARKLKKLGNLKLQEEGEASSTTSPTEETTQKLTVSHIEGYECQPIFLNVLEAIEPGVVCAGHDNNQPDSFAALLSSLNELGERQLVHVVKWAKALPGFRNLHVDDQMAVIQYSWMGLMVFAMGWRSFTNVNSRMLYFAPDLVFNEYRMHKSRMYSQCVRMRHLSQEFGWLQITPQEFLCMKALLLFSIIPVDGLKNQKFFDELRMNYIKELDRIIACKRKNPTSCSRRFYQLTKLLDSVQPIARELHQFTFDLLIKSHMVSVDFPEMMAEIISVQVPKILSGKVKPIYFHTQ
The assay can be described thus: cell-based. On the procedure:
(§1) Compounds were tested for their Androgen Receptor activity in a transactivation assay and in a binding assay.
(§2) The (anti-)androgenic activity of test compounds (EC50 and intrinsic activity) was determined in an in vitro bioassay of Chinese hamster ovary (CHO) cells stably transfected with the human androgen receptor expression plasmid and a reporter plasmid in which the MMTV-promoter is linked to the luciferase reporter gene. The cell-line CHO-AR-pMMTV-LUC 1G12-AS-CA is described in Schoonen et al. (2000), Journal of Steroid Biochemistry and Molecular Biology 74(4):213-222. The antiandrogenic activity of a test compound was determined by the inhibition of the transactivation via the androgen receptor of the enzyme luciferase in the presence of 1 nM DHT (5 α-dihydrotestosterone, 17β-hydroxy-5α-androstan-3-one). Intrinsic activity of antiandrogenic activity was determined in the presence of the reference antiandrogen 2-Hydroxy-2-methyl-N-(4-nitro-3-trifluoromethyl-phenyl)-propionamide (Hydroxyflutamide), and set at 100%. For androgenic activity, maximal intrinsic activity in the presence of 100 nM DHT was set at 100%. Table 4 Androgen receptor activity

In assay [2] the target is T1, human androgen receptor. The assay can be described thus: Androgen receptor transactivation assay, antiandrogenic activity: inhibition of transactivation in the presence of 1 nM DHT (CHO-AR-pMMTV-LUC cells; Table 4). Format: cell-based. The conditions noted are these: for Emax: intrinsic activity relative to reference antiandrogen Hydroxyflutamide (set at 100%); for EC50: antiandrogenic activity, read-out: ant EC50. On the procedure:
as §1, §2

Assay [3] has as its system cytoplasmic human androgen receptor. Kind of assay: Competitive binding to cytoplasmic human androgen receptor from recombinant CHO cells (relative binding affinity). The conditions noted are these: relative to DHT; cytosol of CHO-AR-pMMTV-LUC 1G12-A5-CA cells. An excerpt:
Determination of competitive binding to cytoplasmic human androgen receptor from recombinant CHO cells is used to estimate the relative binding affinity (RBA) of a test compound for androgen receptors present in the cytosol prepared of the recombinant CHO cell-line, CHO-AR-pMMTV-LUC 1G12-A5-CA.

For assay [4], the target named is T1, human androgen receptor. The assay can be described thus: Androgen receptor transactivation assay, androgenic activity in the presence of 0.1 µmol/l onapristone (CHO-AR-pMMTV-LUC cells; Table 5). Format: cell-based. The settings on record: for ago efficacy: maximal intrinsic activity in the presence of 100 nM DHT set at 1.00; for ago potency: potency expressed as percentage of DHT activity. The procedure: The androgenic activity (EC50, potency, and efficacy) of the compounds in Table 5 was determined in an in vitro bioassay of Chinese hamster ovary (CHO) cells stably transfected with the human androgen receptor expression plasmid and a reporter plasmid in which the MMTV promotor is linked to the luciferase reporter gene. The cell line CHO-AR-pMMTV-LUC 1G12-A5-CA is described in Schoonen et al. (J. Steroid Biochem. Molec. Biol. […]; 74: 213-222). The androgen receptor activity of compounds was determined in the presence of 0.1 µmol/l onapristone. The maximal efficacy in the presence of 100 nmol/l DHT was set as 100%. The potencies are expressed as percentage of DHT activity. Table 5 Androgen receptor activity

Where [5] appears, read: androgenic activity, CHO-AR-pMMTV-LUC cells, read-out: ago EC50.
Setting [6] is: in the presence of 1 nM DHT, read-out: ant efficacy.

A value given as a limit tells only on which side of the number the result lay.

By EC50 is commonly meant the concentration giving half of the maximal effect.

For `COc1ccc2c(Sc3ccccc3C(N)=O)cn(Cc3cc(F)cc(F)c3)c2c1` [Compound 18, 2-[1-(3,5-Difluoro-benzyl)-6-methoxy-1H-indol-3-ylsulfanyl]-benzamide], the EC50 at human androgen receptor [1] (setting [5]) is greater than 10000 nM. In addition, the Emax at human androgen receptor [2] (read-out: ant efficacy, in the presence of 1 nM DHT) fell in the range of 20 to 50%.

Take `COc1ccc2c(Sc3ccccc3OC)cn(Cc3cc(F)cc(F)c3)c2c1` [Compound 21]: the EC50 on human androgen receptor [1] (setting [5]) is 5 to 100 nM; at human androgen receptor [2] (in the presence of 1 nM DHT), greater than 10000 nM. Also, on human androgen receptor [2] (setting [6]), the Emax was less than 20%.

As to `O=[N+]([O-])c1ccccc1Sc1cn(Cc2cc(F)cc(F)c2)c2cccc(F)c12` [Compound 51], the EC50 at human androgen receptor [1] was 5 to 100 nM. In addition, the Emax at human androgen receptor [2] (setting [6]) was less than 20%.

The molecule `O=[N+]([O-])c1ccccc1Sc1cn(Cc2cc(F)cc(F)c2)c2ccccc12` [Compound 52] came in with an EC50 on human androgen receptor [1] of less than 5 nM. Moreover, the Emax at human androgen receptor [2] (setting [6]) was less than 20%.

As to `O=[N+]([O-])c1ccccc1Sc1cn(Cc2cc(F)cc(F)c2)c2ccc(O)cc12` [Compound 56], the Emax was less than 20% on human androgen receptor [1] (maximal intrinsic activity in the presence of 100 nM DHT set at 1.00, read-out: ago efficacy) and less than 20% on human androgen receptor [2] (setting [6]). On human androgen receptor [2] (in the presence of 1 nM DHT), the half-maximal effective concentration (EC50) was greater than 10000 nM.

On to `COc1ccc2c(Sc3ccccc3[N+](=O)[O-])cn(Cc3ccccc3)c2c1` [Compound 92], for which, on human androgen receptor [2] (setting [6]), the Emax is less than 20%. Further, the “relative binding affinity (RBA)” value in assay [3] is greater than 1%.

For the molecule `COc1ccc2c(Sc3ccccc3[N+](=O)[O-])cn(Cc3cnccn3)c2c1` [Compound 117, 6-Methoxy-3-(2-nitro-phenylsulfanyl)-1-pyrazin-2-ylmethyl-1H-indole], at human androgen receptor [4], the ago efficacy result was “+ (between 0.50 and 0.80)”; the ago potency result was “+ (between 1% and 5%)”.

Take `O=CNc1ccc2c(Sc3ccccc3[N+](=O)[O-])cn(Cc3cncnc3)c2c1` [Compound 118, N-[3-(2-Nitro-phenylsulfanyl)-1-pyrimidin-5-ylmethyl-1H-indol-6-yl]-formamide]: on human androgen receptor [4], the ago efficacy entry is “+ (between 0.50 and 0.80)”; the ago potency result is listed as “++ (>5%)”.

With `N#Cc1ccc2c(Sc3ccccc3[N+](=O)[O-])cn(Cc3ccccn3)c2c1` [Compound 119, 3-(2-Nitro-phenylsulfanyl)-1-pyridin-2-ylmethyl-1H-indole-6-carbonitrile], on human androgen receptor [4], the ago efficacy result is reported as “++ (≥0.80)” and the ago potency entry was “++ (>5%)”.

Consider `Cl.N#Cc1ccc2c(Sc3ccccc3[N+](=O)[O-])cn(Cc3ccccn3)c2c1` [Compound 120, 3-(2-Nitro-phenylsulfanyl)-1-pyridin-2-ylmethyl-1H-indole-6-carbonitrile monohydrochloride], for which, at human androgen receptor [4], the ago efficacy entry is “++ (≥0.80)” and the ago potency result is on record as “++ (>5%)”.

Regarding `N#Cc1ccc2c(Sc3ccccc3[N+](=O)[O-])cn(Cc3cccnc3)c2c1` [Compound 121, 3-(2-Nitro-phenylsulfanyl)-1-pyridin-3-ylmethyl-1H-indole-6-carbonitrile], at human androgen receptor [4], the ago efficacy entry is reported as “++ (≥0.80)”; the ago potency result was “+ (between 1% and 5%)”.

As to `N#Cc1ccc2c(Sc3ccccc3[N+](=O)[O-])cn(Cc3ccncc3)c2c1` [Compound 122, 3-(2-Nitro-phenylsulfanyl)-1-pyridin-4-ylmethyl-1H-indole-6-carbonitrile], at human androgen receptor [4], the ago efficacy result is “+ (between 0.50 and 0.80)”; the ago potency result is “+ (between 1% and 5%)”.

Take `N#Cc1ccc2c(Sc3ccccc3[N+](=O)[O-])cn(Cc3cncnc3)c2c1` [Compound 123, 3-(2-Nitro-phenylsulfanyl)-1-pyrimidin-5-ylmethyl-1H-indole-6-carbonitrile]: at human androgen receptor [4], the ago efficacy result was “++ (≥0.80)” and the ago potency entry was “++ (>5%)”.

Turning to `N#Cc1ccc2c(Sc3ccccc3[N+](=O)[O-])cn(Cc3ccncn3)c2c1` [Compound 124, 3-(2-Nitro-phenylsulfanyl)-1-pyrimidin-4-ylmethyl-1H-indole-6-carbonitrile], on human androgen receptor [4], the ago efficacy entry is on record as “++ (≥0.80)” and the ago potency entry is listed as “++ (>5%)”.

Turning to `N#Cc1cccc(Cn2cc(Sc3ccccc3[N+](=O)[O-])c3ccc(C#N)cc32)c1` [Compound 125, 1-(3-Cyano-benzyl)-3-(2-nitro-phenylsulfanyl)-1H-indole-6-carbonitrile], on human androgen receptor [4], the ago efficacy entry was “++ (≥0.80)”; the ago potency result is “+ (between 1% and 5%)”.
